Measured values from patent US7045528B2, “Benzofused heterozryl amide derivatives of thienopyridines useful as therapeutic agents, pharmaceutical compositions including the same, and methods for their use” (Agouron Pharmaceuticals, Inc., priority 2002, dated 2006).
pKi: −log10 of the molar value. Like-named read-outs stand apart in the source and are kept apart here.

Biological target: T1, unphosphorylated VEGF-R2Δ50 (FLVK) (Homo sapiens, UniProt P35968, DEL940-989/E990V)
T1 construct: VEGF-R2Δ50 contains residues 806–939 and 990–1171; made in house; host or cells: baculovirus/insect cell system
Test: VEGF-R2 coupled spectrophotometric assay, unphosphorylated VEGF-R2Δ50 (FLVK)
Type: biochemical
Settings: for inhibition at 0.05 µM: read-out: FLVK (% inh @ 50 nM)
Description: VEGF-R2 Construct for Assay:
This construct determines the ability of a test compound to inhibit tyrosine kinase activity. A construct (VEGF-R2Δ50) of the cytosolic domain of human vascular endothelial growth factor receptor 2 (VEGF-R2) lacking the 50 central residues of the 68 residues of the kinase insert domain was expressed in a baculovirus/insect cell system. Of the 1356 residues of full-length VEGF-R2, VEGF-R2Δ50 contains residues 806–939 and 990–1171, and also one point mutation (E990V) within the kinase insert domain relative to wild-type VEGF-R2. Autophosphorylation of the purified construct was performed by incubation of the enzyme at a concentration of 4 μM in the presence of 3 mM ATP and 40 mM MgCl2 in 100 mM HEPES, pH 7.5, containing 5% glycerol and 5 mM DTT, at 4° C. for 2 h. […] See Parast et al., Biochemistry, 37, 16788–16801 (1998).
Coupled Spectrophotometric (FLVK-P) Assay
The production of ADP from ATP that accompanies phosphoryl transfer was coupled to oxidation of NADH using phosphoenolpyruvate (PEP) and a system having pyruvate kinase (PK) and lactic dehydrogenase (LDH). The oxidation of NADH was monitored by following the decrease of absorbance at 340 nm (e340=6.22 cm^−1 mM^−1) using a Beckman DU 650 spectrophotometer. Assay conditions for phosphorylated VEGF-R2Δ50 (indicated as FLVK-P in the tables below) were the following: 1 mM PEP; 250 μM NADH; 50 units of LDH/mL; 20 units of PK/mL; 5 mM DTT; 5.1 mM poly(E4Y1); 1 mM ATP; and 25 mM MgCl2 in 200 mM HEPES, pH 7.5. Assay conditions for unphosphorylated VEGF-R2Δ50 (indicated as FLVK in the tables) were the following: 1 mM PEP; 250 μM NADH; 50 units of LDH/mL; 20 units of PK/mL; 5 mM DTT; 20 mM poly(E4Y1); 3 mM ATP; and 60 mM MgCl2 and 2 mM MnCl2 in 200 mM HEPES, pH 7.5. Assays were initiated with 5 to 40 nM of enzyme. Ki values were determined by measuring enzyme activity in the presence of varying concentrations of test compounds. […] The binding inhibitions were fitted to equation as described by Morrison. The data were analyzed using Enzyme Kinetic and Kaleidagraph software.

[1] = 50 nM compound, unphosphorylated VEGF-R2Δ50

T1 sequence (P35968 with tags, fused parts or gaps DEL940-989/E990V limits assumed): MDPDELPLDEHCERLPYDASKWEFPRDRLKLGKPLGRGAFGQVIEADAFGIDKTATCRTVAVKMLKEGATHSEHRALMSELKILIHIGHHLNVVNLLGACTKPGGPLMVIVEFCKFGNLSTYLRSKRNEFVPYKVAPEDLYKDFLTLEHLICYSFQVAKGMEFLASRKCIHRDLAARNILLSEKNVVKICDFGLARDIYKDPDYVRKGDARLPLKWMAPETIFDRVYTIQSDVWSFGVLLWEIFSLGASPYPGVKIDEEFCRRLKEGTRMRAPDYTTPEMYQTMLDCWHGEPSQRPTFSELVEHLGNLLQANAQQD

SMILES | inhibition at 0.05 µM [1] [%] | pKi (unphosphorylated VEGF-R2Δ50) | inhibition at 0.05 µM [%]
CNC(=O)c1c(C)n(C)c2cc(Oc3ccnc4cc(-c5cccc(CN(C)C)n5)sc34)ccc12 [Example 52, 6-[2-(6-Dimethylaminomethyl-pyridin-2-yl)-thieno[3,2-b]pyridin-7-yloxy]-1,2-dimethyl-1H-indole-3-carboxyllc acid methylamide] | 41 | 7.60 | 
CNC(=O)c1c(C(C)C)oc2cc(Oc3ccnc4cc(C(=O)N5CC[C@@H](OC)C5)sc34)ccc12 [Example 15, 6-(2-[3-methoxypyrrolidine-1-carbonyl]thieno[3,2-b]pyridin-7-yloxy)-2-(1-methylethyl)benzofuran-3-carboxylic acid methylamide] | 13 | 7.32 | 
CCc1c(C(=O)NC)c2ccc(Oc3ccnc4cc(C(=O)N5CC[C@@H](O)C5)sc34)cc2n1C [Example 73, 2-Ethyl-6-[2-(3-hydroxy-pyrrolidine-1-carbonyl)-thieno[3,2-b]pyridin-7-yloxy]-1-methyl-1H-indole-3-carboxylic acid methylamide] | 48 | 7.99 | 
CNC(=O)c1c(C)n(C)c2cc(Oc3ccnc4cc(C(=O)N5C[C@H](OC)[C@H](OC)C5)sc34)ccc12 [Example 36, 6-[2-(3,4-Dimethoxy-pyrrolidine-1-carbonyl)-thieno[3,2-b]pyridin-7-yloxy]-1,2-dimethyl-1H-indole-3-carboxylic acid methylamide] | 41 | 7.94 | 
CNC(=O)c1c(C)sc2cc(Oc3ccnc4cc(CN(C)C)sc34)ccc12 [Example 116, 6-(2-[Dimethylaminomethyl]thieno[3,2-b]pyridin-7-yloxy)-2-methylbenzo[b]thiophene-3-carboxylic acid methylamide] | 4 |  | 
Cc1oc2cc(Oc3ccnc4ccsc34)ccc2c1C(=O)NCCOC(C)C [Example 109, 2-Methyl-6-(thieno[3,2-b]pyridin-7-yloxy)-benzofuran-3-carboxylic acid (2-isopropoxy-ethyl)-amide] | 82 |  | 
CNC(=O)c1cn(C)c2cc(Oc3ccnc4cc(-c5nccn5C)sc34)ccc12 [Example 23, 1-Methyl-6-[2-(1-methyl-1H-imidazol-2-yl)-thieno[3,2-b]pyridin-7-yloxy]-1H-indole-3-carboxylic acid methylamide] | 19 | 7.11 | 
CCC(=O)c1cc2nccc(Oc3ccc4c(C(=O)NCCCN5CCOCC5)c(C)n(C)c4c3)c2s1 [Example 68, 1,2-Dimethyl-6-(2-propionyl-thieno[3,2-b]pyridin-7-yloxy)-1H-indole-3-carboxylic acid (3-morpholin-4-yl-propyl)-amide] | 37 |  | 
CNC(=O)c1c(C)n(C)c2cc(Oc3ccnc4cc(C(=O)N(C)CCO)sc34)ccc12 [Example 31] | 25 | 7.52 | 
CCn1c(C)c(C(=O)NC)c2ccc(Oc3ccnc4cc(-c5nccn5C)sc34)cc21 [Example 72, 1-Ethyl-2-methyl-6-[2-(1-methyl-1H-imidazol-2-yl)-thieno[3,2-b]pyridin-7-yloxy]-1H-indole-3-carboxylic acid methylamide] |  |  | 2
Cc1oc2cc(Oc3ccnc4ccsc34)ccc2c1C(=O)NCCCN1CCOCC1 [Example 112, 2-Methyl-6-(thieno[3,2-b]pyridin-7-yloxy)benzofuran-3-carboxylic acid (3-morpholin-4-ylpropyl)-amide] | 91 |  | 
CCn1c(C)c(C(=O)NC)c2ccc(Oc3ccnc4cc(C(=O)N5CCC5)sc34)cc21 [Example 71, 6-[2-(Azetidine-1-carbonyl)thieno[3,2-b]pyridin-7-yloxy]-1-ethyl-2-methyl-1H-indole-3-carboxylic acid methylamide] |  |  | 5
Cc1c(C(=O)NCC(C)C)c2ccc(Oc3ccnc4cc(-c5nccs5)sc34)cc2n1C [Example 67, 1,2-Dimethyl-4(2-thiazol-2-yl-thieno[3,2-b]pyridin-7-yloxy)-1 indole-3-carboxylic acid isobutyl-amide] | 58 | 7.90 | 

The next lines start with results.

inhibition at 0.05 µM [1] [%] | pKi (unphosphorylated VEGF-R2Δ50) | SMILES | inhibition at 0.05 µM [%]
38 | 7.59 | CNC(=O)c1cn(C)c2cc(Oc3ccnc4cc(C(=O)N5CC[C@@H](OC)C5)sc34)ccc12 [Example 22, 6-[2-(3-methoxypyrrolidine-1-carbonyl)-thieno[3,2-b]pyridin-7-yloxy]-1-methyl-1H-indole-3-carboxylic acid methylamide] | 
36 | 7.44 | CNC(=O)c1c(C)n(C)c2cc(Oc3ccnc4cc(-c5ncccn5)sc34)ccc12 [Example 50, 1,2-Dimethyl-6-(2-pyrimidin-2-yl-thieno[3,2-b]pyridin-7-yloxy)-1H-indole-3-carboxylic acid methylamide] | 
51 | 8.02 | CCc1oc2cc(Oc3ccnc4cc(C(=O)N5CCC[C@H]5COC)sc34)ccc2c1C(=O)NC [Example 96, 2-ethyl-6-(2-[(S)-2-(methoxymethyl)pyrrolidine-1-carbonyl]thieno[3,2-b]pyridin-7-yloxy)-benzofuran-3-carboxylic acid methyl amide] | 
16 | 6.93 | CNC(=O)c1c(C)sc2cc(Oc3ccnc4cc(COCCN5CCCC5)sc34)ccc12 [Example 114, 2-Methyl-6(2-[2-(pyrrolidin-1-yl)ethoxymethyl]thieno[3,2-b]pyridin-7-yloxy)benzo[b]thiophene-3-carboxylic acid methylamide] | 
17 | 7.44 | Cc1oc2cc(Oc3ccnc4ccsc34)ccc2c1C(=O)NCc1ccncc1 [Example 107, 2-Methyl-6-[Thieno(3,2-b)pyridin-7-yloxy]benzofuran-3-carboxylic acid 2-[(4-pyridyl)-methyl] amide] | 
61 |  | Cc1oc2cc(Oc3ccnc4ccsc34)ccc2c1C(=O)NCCc1ccc(S(N)(=O)=O)cc1 [Example 108, 2-Methyl-6-(thieno[3,2-b]pyridin-7-yloxy)-benzofuran-3-carboxylic acid [2-(4-sulfamoyl-phenyl)-ethyl]-amide] | 
6 | 7.05 | CNC(=O)c1c(C)n(C)c2cc(Oc3ccnc4cc(C(=O)N(C)CCN(C)C)sc34)ccc12 [Example 29, N-[2-(Dimethylamino)ethyl]-7-({1,2-dimethyl-3-[(methylamino)carbonyl]-1H-indol-6-yl}oxy)-N-methylthieno[3,2-b]pyridine-2-carboxamide] | 
43 | 7.88 | CNC(=O)c1cn(C)c2cc(Oc3ccnc4cc(C(=O)N5CC[C@@H](O)C5)sc34)ccc12 [Example 21, 6-{2-[3-(R)-hydroxy-pyrrolidine-1-carbonyl]thieno[3,2-b]pyridin-7-yloxy}-1-methyl-1H-indole-3-carboxylic acid methylamide] | 
99 |  | Cc1oc2cc(Oc3ccnc4ccsc34)ccc2c1C(=O)Nc1ccc2[nH]ccc2c1 [Example 113, 2-Methyl-6-(thieno[3,2-b]pyridin-7-yloxy)-benzofuran-3-carboxylic acid (1H-indol-5-yl)-amide] | 
4 |  | CNC(=O)c1c(C)sc2cc(Oc3ccnc4cc(CN5CCCC5)sc34)ccc12 [Example 115, 2-Methyl-6-(2-[pyrrolidin-1-ylmethyl]thieno[3,2-b]pyridin-7-yloxy)benzo[b]thiophene-3-carboxylic acid methylamide] | 
